We go through one molecule from paper PMC7689089, “Regorafenib combined with PD1 blockade increases CD8 T-cell infiltration by inducing CXCL10 expression in hepatocellular carcinoma” (Journal for Immunotherapy of Cancer, 2020).

One test concerns RIL-175 orthotopic HCC. Nature of the test: Survival, orthotopic RIL-175 HCC in Rag1–/–/C57Bl/6 mice. The class given is in vivo, mouse. The conditions noted are these: regorafenib 10 mg/kg; Rag1–/– mice lacking functional T cells. The protocol:
Regorafenib was provided by Bayer and administered by oral gavage daily at a dose of 5, 10 and 20 mg/kg in 34% 1,2-propandiol (Sigma-Aldrich), 34% PEG400 (Sigma-Aldrich), 12% pluronic F68 (Thermo Fischer Scientific, Waltham, Massachusetts, USA), and 20% water, as per manufacturer’s recommendation. Mouse anti-PD1 antibody (clone RMP-014) was purchased from BioXcell (Lebanon, New Hampshire, USA) and Mouse IgG isotype control was purchased from Thermo Fischer Scientific. The STAT3 inhibitor LLL12 was purchased from BioVision (Milpitas, California, USA). Antimouse PD1 antibody or IgG (control) were given intraperitoneally at a dose of 10 mg/kg thrice weekly, as described.[11] Daily gavage of vehicle and intraperitoneal injection of 10 mg/kg of isotype-matched IgG were given as control treatments for anti-PD1 antibody. For the survival studies, moribund status was used as the end point and moribund was defined as symptoms of prolonged distress, >15% of weight loss compared with the starting date, body condition score >2 and tumor size of >24 mm in diameter.
All statistical analyzes were performed using Stata software, V.14.1 (StataCorp, College Station, Texas, USA). […] Quantitative variables were compared using Student’s t-test. […] Statistical analyses in the survival experiments were performed by Cox proportional hazard model and HR and 95% CIs were calculated as well.

The subject of the next test is HCA1 cells. In words: CXCL10 secretion by HCA1 cells in vitro. The class given is cell-based, mouse. As to conditions: 36hr; compared with increase in RIL-175 cells.
The next test relates to RIL-175 HCC vasculature. Nature of the test: Tumor vessel and hypoxia immunofluorescence (CD31, α-SMA, CA-IX) in RIL-175 orthotopic HCC. The class given is in vivo, mouse. As to conditions: regorafenib 10 mg/kg; day 12; vs control. The procedure: Figure 1 Dose-dependent effects of regorafenib on vascular normalization when used in combination with programmed cell death protein 1 (PD1) blockade in RIL-175 hepatocellular carcinoma (HCC) model. (A, B) Mice with established (4–5 mm in diameter) HCCs were treated with anti-PD1 therapy (P) alone or in combination with 5 mg/kg (R5), 10 mg/kg (R10) or 20 mg/kg (R20) regorafenib versus control (C) (n=8 mice per group, 1-week treatment). We used immunofluorescence (IF) for evaluation of tumor vessels by CD31 and α-smooth muscle actin (α-SMA) immunostaining. […] Representative IF of tumor sections after staining for CD31 (for endothelial cells in green) and α-SMA (for pericytes in red) and DAPI counterstaining (in blue). Five random fields from the tumor center (defined as no inclusion of the edge of the tumor) were evaluated for each sample. Data represent mean values. Scale bars=500 µm. (C) Representative IF confocal microscopy images of tumor vessels using and CD31 staining (green) and tissue hypoxia using CA-IX staining (red) of whole liver sections; scale bars=2 mm. […] (E) Representative IF confocal microscopy images of mature tumor vessels using CD31 staining (green) and α-SMA staining (red) of RIL-175 tumors; scale bars, 100 µm.

The test system of the next test is RIL-175 cells. In words: STAT1/STAT3 activity in RIL-175 cells in vitro (western blot). It counts as cell-based, mouse. As to conditions: 1 µM in vitro. The protocol:
(A) Changes induced by combination of regorafenib (10 mg/kg) with anti-PD1 antibody in immune-related pathways from the gene set enrichment analysis (GSEA) using curated gene sets in RIL-175 HCC model (see also online supplemental dataset S1 and figure S2E). (B, C) Changes induced by combination of regorafenib (10 mg/kg) with anti-PD1 antibody in STAT3 and STAT1 activity (B), showing an increased ratio of phosphorylated (p)-STAT1/p-STAT3 (normalized to total STAT1 and STAT3, respectively) by western blot analysis of whole RIL-175 HCC tissue (C) (n=4 mice). (D) Treatment with regorafenib increases CXCL10 expression by RIL-175 HCC cells in vitro after 36 hours, in a dose-dependent manner (n=6). Culture medium alone was used as a negative control (NC). […] (J, K) Combination therapy increases CXCL10 protein expression in whole RIL-175 tumor tissue 6 hours and 12 hours after in vivo when regorafenib treatment was used at doses of 10 mg/kg (R10) and 20 mg/kg (R20) (n=3) by western blot analysis (J); quantitative data of CXCL10/β-actin ratios are shown in (K). […]
Flow cytometry analysis. […] After preparation, cells were suspended in 2ml of PBS with 2% BSA, then counted using a cell counting plate (Kova slide) (if the final concentration of cell exceeded 10^7 cells/ml, a dilution factor was applied). […]
On the technique in general: A western blot detects proteins with antibodies after separation by electrophoresis.

For `CNC(=O)c1cc(Oc2ccc(NC(=O)Nc3ccc(Cl)c(C(F)(F)F)c3)c(F)c2)ccn1` [regorafenib], in the test on RIL-175 orthotopic HCC, the Survival entry was “no significant benefit”. Further, the “Level of CXCL10 secreted by HCA1 cells” value in the test with HCA1 cells was “to a lesser extent”. Also, in the test with RIL-175 HCC vasculature, the “Hypoxic tissue area measured by CA-IX staining” value is “significantly decreased” and the MVD result is on record as “significant increase”. The “STAT1 and STAT3 activity (p-STAT1/p-STAT3) in RIL-175 cells” value in the test on RIL-175 cells was “STAT1 activation and STAT3 inhibition”.
